# Measurements: patent US8546357B2, “Boron-containing small molecules for controlling ectoparasites” (priority 2011, dated 2013)
# How the values were obtained:
# [1] = system: American dog tick (Dermacentor variabilis) nymphs; assay: Efficacy against nymphal-stage American dog ticks on rats, oral; format: in vivo; settings: fipronil positive control, oral 10 mg/kg bodyweight, all studies
# Method: Evaluations were conducted using a modified version of the assay as described in Gutierrez et al., J. Med. Entomol. 43(3): 526-532 (2006). This assay may be modified by simply using different tick species (the reference describes Amblyomma americanum ticks), such as Dermacentor variabilis or Rhipicephalus sanguineus ticks, as well as different life-stages (larval, nymphal or adult). Further, the reference describes using topical application methods, but oral, transdermal and subcutaneous injection routes of administration may be used.
# In these studies, adult male or female rats, approximately 300 grams in size, were randomly assigned to a treatment group or a control (untreated negative control or fipronil positive control) group. Each group consisted of three (3) to five (5) rats. […] On Day 2, approximately forty-eight (48) hours after treatment, live and dead ticks were removed from animals and counted.
# Live tick counts were transformed using the natural logarithm transformation plus one (Ln count+1); addition of one to each count served to adjust for counts that were zero. […] GM percent efficacy of treatments was calculated using the following formula:
# Enantiomers were evaluated for activity against American dog tick (Dermacentor variabilis) nymphs on rats. […] On Day 2, approximately forty-eight (48) hours after treatment, live and dead ticks were removed from animals and counted. […]
# [2] = system: Lone star tick larvae (Amblyomma americanum); assay: Larval immersion microassay against larval-stage Lone star ticks; settings: Amblyomma americanum, 24 h, read-out: activity (percent larval mortality)
# Method: The larval immersion microassay was conducted as described in detail in White, et al., J. Med. Entomol. 41: 1034-1042 (2004). Compounds of the invention were formulated in dimethylsulfoxide (DMSO) to prepare a stock solution at a concentration of at least 10 mM. Using 96-well microtiter plates, an aliquot of the mM sample was subsequently diluted in a water-based solution containing 1% ethanol and 0.2% Triton X-100, to obtain the desired concentration (typically 0.3 mM or lower) of compound in a volume of 0.1 ml (minimum n=3 replicates per compound or concentration). Approximately 30-50 Lone star tick larvae (Amblyomma americanum) were submerged into each well containing compounds. After a 30 minute immersion period, larvae were removed with a wide-bore pipette tip in 0.05 ml of fluid, dispensed into a commercial paper tissue biopsy bag which was sealed at the top with a plastic dialysis clip, inverted and allowed to air dry for 60 minutes. Bags containing larvae were then incubated at approximately 27 degrees Celsius and >90% relative humidity. After 24 hours, bags were opened, live and dead larvae were counted and percent larval mortality was calculated.
# 7 and 8 contain one chiral center each, and are racemic mixtures comprised of approximately 50% R- and 50% S-enantiomer. In vitro and surrogate animal (rat) studies were conducted to evaluate the biological activity of the R- and S-enantiomers of 7 and 8. For the in vitro study, larvae of the Lone star tick (Amblyomma americanum) were exposed to 9, 10, 11 and 12 using the larval immersion microassay at a concentration of no greater than 0.3 mM. Following exposure, larvae were removed, transferred to a tissue biopsy bag and incubated at approximately 27 degrees Celsius and >90% relative humidity. After 24 hours, biopsy bags were opened and the numbers of live and dead larvae were determined
# [3] = system: adult American dog tick (Dermacentor variabilis); assay: Therapeutic (knockdown) and residual efficacy against adult American dog tick infestations on dogs, oral; format: in vivo; settings: for Geometric mean group live parasite counts / % efficacy: Table 2, oral capsule 25 mg/kg
# Method: (§1) The therapeutic (knockdown) and residual efficacy of 5, administered orally at a point dose of 25 mg/kg bodyweight, was evaluated against adult American dog tick (D. variabilis) infestations on dogs. Six beagle dogs were allocated to one of two treatment groups, an untreated control group (n=4 dogs) or 5 group (n=2 dogs). On Day 0, two dogs were treated with 5 via oral gavage (25 mg/ml 5, dissolved in a solution of 55% polyethylene glycol-300, 35% propylene glycol and 10% water) at a point dose of approximately 25 mg/kg. Twenty-four (24) hours before treatment (Day −1), all dogs were infested with approximately 50 unfed, adult-stage American dog ticks (D. variabilis; approximately 50% male and 50% female). On Day 1, approximately 24 hours after treatment, thumb counts were conducted to determine the number and life-status classification of ticks present on all dogs (normal, moribund or dead; attached or detached). Ticks were not removed during thumb counts. On Day 2, approximately 48 hours after treatment, all ticks were classified and removed from dogs. Dogs were re-infested with approximately 50 unfed, adult D. variabilis ticks on Days 5 and 12, with tick classification, counts and removal on Days 7 and 14 (approximately 48 hours after each infestation).
# (§2) The therapeutic (knockdown) and residual efficacy of 7 and 8, each administered orally at a point dose of 25 mg/kg bodyweight, was evaluated against adult tick (Dermacentor variabilis and Rhipicephalus sanguineus) and adult cat flea (Ctenocephalides felis) infestations on dogs. Twelve (12) male and female beagle dogs were randomly allocated to one of three treatment groups, four (4) dogs per group: Untreated control; 7, 25 mg/kg; and 8, 25 mg/kg. On Day −1, all dogs were infested with approximately 50 unfed, adult D. variabilis ticks. On Day 0, dogs were orally administered gelatin capsules containing either 7 or 8 (50% technical active, 47% microcrystalline cellulose and 3% croscarmellose sodium, w/w). Ticks were counted and classified, but not removed, on all dogs on Day 1, approximately 24 hours after treatment. On Day 2, approximately 48 hours after treatment, ticks were counted, classified and removed. Dogs were re-infested with the same number of D. variabilis ticks on Days 5, 12, 19 and 28 and tick counts were conducted on Days 7, 14, 21 and 30.
# (§3) The therapeutic (knockdown) and residual efficacy of 7, administered orally at a point dose of 35 mg/kg bodyweight, was evaluated against adult tick (Dermacentor variabilis and Rhipicephalus sanguineus) and adult cat flea (Ctenocephalides felis) infestations on dogs. Twelve (12) male and female beagle dogs were allocated to either an untreated, negative control group or 7 group (n=6 dogs per group). Dogs were infested with approximately 50 unfed, adult D. variabilis ticks on Days −1, 5, 12, 19, 28, 35 and 42. On Day 0, dogs were orally administered gelatin capsules containing Compound 8194 (50% technical active, 47% microcrystalline cellulose and 3% croscarmellose sodium, w/w) at a point dose of 35 mg/kg. D. variabilis tick counts and classification were conducted on Day 1 (thumb count, approximately 24 hours after treatment) and Days 2, 7, 14, 21, 30, 37 and 44 (approximately 48 hours after treatment). Following removal of D. variabilis ticks on Day 30, all dogs were co-infested with approximately 50 unfed, adult brown dog ticks (R. sanguineus) and approximately 100 unfed, adult cat fleas (C. felis). Brown dog tick and cat flea counts were conducted on Day 32 (approximately 48 hours after infestation). GM percent efficacy of treatments against both tick species and fleas was calculated using the following formula: […]
# The therapeutic (knockdown) and residual efficacy of S-enantiomer, 9, administered orally at a point dose of 25 mg/kg bodyweight, was evaluated against adult tick (Dermacentor variabilis and Rhipicephalus sanguineus) and adult cat flea (Ctenocephalides felis) infestations on dogs. […]
# [4] = system: brown dog tick (Rhipicephalus sanguineus); assay: Residual efficacy against adult brown dog tick infestations on dogs, oral; format: in vivo; settings: Table 2, oral capsule 25 mg/kg, Day 32
# Method: (§4) Immediately following removal of D. variabilis ticks on Day 30, dogs were co-infested with approximately 50 adult, unfed brown dog ticks (R. sanguineus, approximately 50% male and 50% female) and approximately 100 adult, unfed cat fleas (C. felis, approximately 50% male and 50% female). Ticks and fleas were counted and removed on Day 32 (approximately 48 hours after infestation). GM percent efficacy of treatments against both tick species and fleas was calculated using the following formula: […]
# as §3
# (§5) The therapeutic (knockdown) and residual efficacy of S-enantiomer, 9, administered orally at a point dose of 25 mg/kg bodyweight, was evaluated against adult tick (Dermacentor variabilis and Rhipicephalus sanguineus) and adult cat flea (Ctenocephalides felis) infestations on dogs. Twelve (12) male and female beagle dogs were allocated to either an untreated, negative control group or 9 group (n=6 dogs per group). Dogs were infested with approximately 50 unfed, adult D. variabilis ticks on Days −1, 5, 12, 19, and 28. On Day 0, dogs were orally administered gelatin capsules containing 9 (50% technical active, 47% microcrystalline cellulose and 3% croscarmellose sodium, w/w) at a point dose of 25 mg/kg. D. variabilis tick counts and classification were conducted on Day 1 (thumb count, approximately 24 hours after treatment) and Days 2, 7, 14, 21 and 30 (approximately 48 hours after treatment). Following removal of D. variabilis ticks on Day 30, all dogs were co-infested with approximately 50 unfed, adult brown dog ticks (R. sanguineus) and approximately 100 unfed, adult cat fleas (C. felis). Brown dog tick and cat flea counts were conducted on Day 32 (approximately 48 hours after infestation). GM percent efficacy of treatments against both tick species and fleas was calculated using the following formula: […]
# [5] = system: cat flea (Ctenocephalides felis); assay: Residual efficacy against adult cat flea infestations on dogs, oral; format: in vivo; settings: Table 2, oral capsule 25 mg/kg, Day 32
# Method: as §4, §3, §5
# [6] = Tolerability of oral treatment in dogs; format: in vivo, dog; settings: Example 6, oral capsule 25 mg/kg
# Method: as §1, §2
# The therapeutic (knockdown) and residual efficacy of 7, administered orally at a point dose of 35 mg/kg bodyweight, was evaluated against adult tick (Dermacentor variabilis and Rhipicephalus sanguineus) and adult cat flea (Ctenocephalides felis) infestations on dogs. Twelve (12) male and female beagle dogs were allocated to either an untreated, negative control group or 7 group (n=6 dogs per group). Dogs were infested with approximately 50 unfed, adult D. variabilis ticks on Days −1, 5, 12, 19, 28, 35 and 42. On Day 0, dogs were orally administered gelatin capsules containing Compound 8194 (50% technical active, 47% microcrystalline cellulose and 3% croscarmellose sodium, w/w) at a point dose of 35 mg/kg. […] GM percent efficacy of treatments against both tick species and fleas was calculated using the following formula: […]
# The therapeutic efficacy and speed of kill of 7, administered orally at a point dose of 20 mg/kg bodyweight, was evaluated against adult cat flea (Ctenocephalides felis) infestations on dogs. […]
SMILES,efficacy (% reduction in live tick counts) [1] [%],mortality at 300 µM [2] [%],"continued residual efficacy ([3]; Example 6, oral capsule 25 mg/kg, through at least 14 days) [%]",Geometric mean group live parasite counts ([3]; Day 1),% efficacy ([3]; Day 2),Geometric mean group live parasite counts ([3]; Day 2),% efficacy ([3]; Day 7),Geometric mean group live parasite counts ([3]; Day 7),% efficacy ([3]; Day 14),Geometric mean group live parasite counts ([3]; Day 14),% efficacy ([3]; Day 21),Geometric mean group live parasite counts ([3]; Day 21),% efficacy ([3]; Day 30),Geometric mean group live parasite counts ([3]; Day 30),Geometric mean group live parasite counts [4],Geometric mean group live parasite counts [5],tolerability [6]
"N#Cc1nn(-c2c(Cl)cc(C(F)(F)F)cc2Cl)c(N)c1[S+]([O-])C(F)(F)F (centres unmarked) [Fipronil, fipronil, reference compound]",> 95,,,,,,,,,,,,,,,,
"Cc1cc(C2=NOC(c3cc(Cl)c(F)c(Cl)c3)(C(F)(F)F)C2)ccc1C(=O)NCc1ccc2c(c1)B(O)OC2(C)C (racemic) [Compound 8, 4-(5-(3,5-Dichloro-4-fluorophenyl)-5-(trifluoromethyl)-4,5-dihydroisoxazol-3-yl)-N-((1-hydroxy-3,3-dimethyl-1,3-dihydrobenzo[c][1,2]oxaborol-6-yl)methyl)-2-methylbenzamide]",,≥ 80,100,0.0,(100) %,0.0,(100) %,0.0,(100) %,0.0,(98.4) %,0.7,(81.0) %,6.7,4.1,7.1,well tolerated
